Bridge positions count the residues as written; N and C are the ends. Square brackets hold non-standard residues; d marks the D form. Peptide text beside a SMILES is read from it. ξ: configuration not given here. Thr(3ξ) = CC(O)[C@H](N)C(=O)O; αMeV = CC(C)[C@](C)(N)C(=O)O; Nle = CCCC[C@H](N)C(=O)O
Legend:
[1] = test system: LPS-induced lung inflammation in male C57BL/6 mice; assay: LPS-induced lung inflammation in male C57BL/6 mice (BAL neutrophilia); format: in vivo; settings: Dose 0.01%, BAL fluid neutrophilia
VPAC2 receptor = biological target: T1, VPAC2 receptor (Homo sapiens, UniProt P41587); assay: Sup-T1 cAMP agonist assay; format: cell-based; settings: human T-lymphoid cell line Sup-T1 expressing VPAC2 receptor; cAMP EIA; 5 min at room temperature; read-out: Sup-T1 cAMP EC50
T1 construct: The human T-lymphoid cell line Sup-Ti, which expresses the VPAC2 receptor; host or cells: Sup-T1 (Sup-Ti [sic]) human T-lymphoid cell line
T1 sequence (P41587 24-438): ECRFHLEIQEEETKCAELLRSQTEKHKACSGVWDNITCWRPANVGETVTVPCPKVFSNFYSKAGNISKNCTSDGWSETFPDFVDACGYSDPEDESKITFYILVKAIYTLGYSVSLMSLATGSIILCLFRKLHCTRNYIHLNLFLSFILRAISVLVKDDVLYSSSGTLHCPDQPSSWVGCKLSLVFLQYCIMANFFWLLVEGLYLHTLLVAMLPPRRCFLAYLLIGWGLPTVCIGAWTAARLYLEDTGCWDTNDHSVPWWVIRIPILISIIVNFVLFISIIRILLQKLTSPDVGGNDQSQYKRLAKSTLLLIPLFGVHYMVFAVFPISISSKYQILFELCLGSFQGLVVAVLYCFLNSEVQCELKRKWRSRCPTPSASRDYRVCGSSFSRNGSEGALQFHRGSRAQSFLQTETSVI
Summary of the method: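 Sup-T1 human T-lymphoid cells with endogenous VPAC2 (RPMI 1640, 25 mM HEPES, 10% FBS) were plated at 4×10^4 cells/well and exposed to compound for 5 min at room temperature. After lysis, cAMP was measured by enzyme immunoassay. EC50 came from a sigmoidal fit of 7-concentration dose-response data.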

[2] = biological target: T2, human neutrophil elastase (Homo sapiens, UniProt P08246); assay: Peptide stability to neutrophil elastase (RP HPLC ESI MS); settings: halftime with human neutrophil elastase 1 to 2 μg/mL in PBS, ambient temperature, normalized to halftime of the reference standard
T2 sequence (P08246 30-247 limits assumed): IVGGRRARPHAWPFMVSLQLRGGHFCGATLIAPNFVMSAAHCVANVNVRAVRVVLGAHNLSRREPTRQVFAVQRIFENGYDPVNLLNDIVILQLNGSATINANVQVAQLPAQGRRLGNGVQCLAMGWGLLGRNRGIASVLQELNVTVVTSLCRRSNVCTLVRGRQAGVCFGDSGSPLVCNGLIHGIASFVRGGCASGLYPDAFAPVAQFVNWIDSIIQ
Description: The proteolytic stabilities of peptide analogs were established with reversed phase high pressure liquid chromatography (RP HPLC) electrospray ionization mass spectrometry (ESI MS). Peptide analogs were incubated with human neutrophile elastase and the quantity of undigested analogs was determined by ESI MS at appropriate time points. Multiple peptide analogs could be included in one experiment as long as they could be differentiated by HPLC retention time and/or by molecular weight. Ac-His Ac-[sequence]Nle-[sequence]NH2 was used in all experiments as a control and as a reference standard. The simultaneous use of multiple peptide analogs together with a reference standard allowed for compensation for variations in the proteolytic fidelity of the enzyme over the multiple experiments. Integrated ion currents obtained for the individual undigested peptide were used for quantitation. For calculation of halftime first-order kinetic behavior was assumed and all calculations were normalized to the halftime of the reference standard.
Peptide stock solutions were prepared in water to a concentration of 2.5 mg/mL. Unless in use, all stock solutions were kept at −20° C. […] Concentrations of the peptide analogs were adjusted accordingly. In order to do the proteolytic digestion, peptides were dissolved in phosphate buffered saline (PBS) to a concentration of 0.1 mg/mL. As many as six different peptide analogs were mixed into one 50 μL reaction volume. The reference standard was added to all experiments as a reference and internal standard. Elastase (Human Neutrophil, Calbiochem, Cat # 324681) was added from an elastase stock solution to a concentration of 1 to 2 μg/mL. Different amounts of the enzyme were chosen to compensate for the differences in the proteolytic stabilities of the peptide analogs. Previously, a stock solution of elastase was prepared in water at a concentration of 1 mg/mL. Small aliquots of the enzyme stock solution were kept at −20° C. to better maintain the enzyme activity by limiting the number of thaw and freeze cycles.
The digestion was done at ambient temperature in an autosampler tube within the autosampler of the HPLC system (Agilent 1100 Series). For a time course, 5 μL aliquots were injected in 70 minute intervals onto the reversed phase HPLC column (Phenomenex, Luna C18, 3μ, 100 ↑, 150×2.00 mm). For the starting time point an aliquot was injected just prior to the addition of the proteolytic enzyme. A total of eight time points could be recorded from one experiment, including the starting point. Peptides were separated on the reversed phase column with a 50 minute gradient of 5% to 30% organic phase. The aqueous phase was 0.05% (v/v) of trifluoroacetic acid in water and the organic one was 0.045% (v/v) of trifluoroacetic acid in acetonitrile. Absorbances were recorded at 214 and 280 nm respectively. All of the column effluent was introduced into the turbo V source of the electrospray ionization mass spectrometer (ABI 4000 QTrap LC/MS/MS System). Mass spectra were acquired in Q3MS mode in a mass range to include all triply charged ions of the non degraded peptide analogs. Care was taken to assure that peptide analogs could clearly be differentiated either by the chromatographic retention time or by the difference in molecular weight. Relative quantities of the respective undigested peptide analog were calculated from the integrated total ion current. A window of 2.5 Da was chosen and the manufacturer's software was used to integrate the individual ion currents. The overall halftime of an individual peptide analog was calculated by assuming first-order kinetic behavior and was normalized with respect to the halftime of the reference standard.

[3] = test system: methacholine-induced bronchospasm in mice; assay: Methacholine-induced bronchospasm in mice (whole body plethysmography, Penh); format: in vivo; settings: balb/c mice; drug by aerosol for 20 minutes before spasmogen challenge; relative to vehicle
Description: Respiratory function is measured in conscious, freely moving mice using whole body plethysmographs (WBP) from BUXCO Electronics, Inc. (Troy, N.Y.). WBP chambers allow animals to move freely within the chamber while respiratory function is measured. Eight chambers are used simultaneously so that eight mice can be measured at the same time. Each WBP chamber is connected to a bias flow regulator to supply a smooth, constant flow of fresh air during testing. A transducer attached to each chamber detects pressure changes that occur as the animal breathes. Pressure signals are amplified by a MAX II Strain Gauge preamplifier and analyzed by the Biosystem XA software supplied with the system (BUXCO Electronics, Inc.). Pressure changes within each chamber are calibrated prior to testing by injecting exactly 1 ml of air through the injection port and adjusting the computer signal accordingly. Mice are placed in the WBP chambers and allowed to acclimate for 10 minutes prior to testing. Testing is conducted by letting the animals move and breathe freely for 15 minutes while the following parameters are measured: Tidal Volume (ml), Respiratory Rate (breaths per minutes), Minute Volume (tidal volume multiplied by respiratory rate, ml/min), Inspiratory Time (sec), Expiratory Time (sec), Peak Inspiratory Flow (ml/sec), and Peak Expiratory Flow (ml/sec). Raw data for each of the parameters listed above are captured in the software database and averaged once per minute to give a total of 15 data points per parameter. The average of the 15 data points is reported. Accumulated Volume (ml) is a cumulative value (not averaged) and represents the sum of all tidal volumes for the 15-minute test session. The protocol is customized to include measurements before, during, and after a spasmogen challenge to determine Penh. Dose-response effects of a particular spasmogen (i.e. methacholine (MCh), acetylcholine, etc.) are obtained by giving nebulized aerosol (30-60 sec exposure) at approximately 5-10 min intervals. Mice (balb/c) are treated with vehicle (2% DMSO in H2O) or drug dissolved in 4 ml vehicle for 20 minutes by aerosol, as described above, prior to spasmogen challenge. Penh is determined at 5, 30 and 60 minutes post-challenge. Data are reported as percent inhibition of Penh relative to vehicle.

[4] = biological target: Ac-His-Ser-Asp-Ala-MeVal-Phe-Thr-Glu-Asn-Tyr-thr-Lys-Leu-Arg-Lys-Gln-Nle-Ala-Ala-Lys-Lys-Tyr-Leu-Asn-Asp-Leu-Leu-Lys-Gly-Gly-Thr-NH2 (Artificial Sequence); settings: scale: relative to the halftime of the reference standard
[5] = biological target: Ac-His-Ala-Asp-Ala-MeVal-Phe-Thr-Glu-Asn-Tyr-Thr-Lys-Leu-Arg-Lys-Gln-Nle-Ala-Ala-Lys-Lys-Tyr-Leu-Asn-Asp-Leu-Lys-Lys-Gly-Gly-Thr-NH2 (Artificial Sequence); settings: scale: relative to the halftime of the reference standard
[6] = biological target: Ac-His-Ser-Asp-Ala-MeVal-Phe-Thr-Glu-Asn-Tyr-Thr-Lys-Leu-Arg-Lys-Arg-Nle-Ala-Ala-Lys-Lys-Tyr-Leu-Asn-Asp-Leu-Lys-Lys-Gly-Gly-Thr-NH2 (Artificial Sequence); settings: scale: relative to the halftime of the reference standard
[7] = biological target: Ac-His-Ala-Asp-Ala-MeVal-Phe-Thr-Glu-Asn-Tyr-Thr-Lys-Leu-Arg-Lys-Gln-Nle-Ala-Ala-Lys-Lys-Tyr-Leu-Asn-Asp-Leu-Leu-Lys-Gly-Gly-Thr-NH2 (Artificial Sequence); settings: scale: relative to the halftime of the reference standard

| Compound | EC50 (VPAC2 receptor) [nM] | Relative elastase stability [2] | Relative elastase stability [4] | Relative elastase stability [5] | Relative elastase stability [6] | Relative elastase stability [7] | Inhibition of LPS-induced neutrophilia [1] | Inhibition of Penh at 5 minutes post-challenge [3] |
| --- | --- | --- | --- | --- | --- | --- | --- | --- |
| Elastase (Human Neutrophil, Calbiochem, Cat # 324681) (from UniProt P08246) (enzyme) |  |  | 3.4 | 5.7 | 1.8 | 3.6 |  |  |
| CCCC[C@H](NC(=O)[C@H](CCCNC(=N)N)NC(=O)[C@H](CCCCN)NC(=O)[C@H](CCCNC(=N)N)NC(=O)[C@H](CC(C)C)NC(=O)[C@H](CCCCN)NC(=O)[C@@H](NC(=O)[C@H](Cc1ccc(O)cc1)NC(=O)[C@H](CC(N)=O)NC(=O)[C@H](CCC(=O)O)NC(=O)[C@@H](NC(=O)[C@H](Cc1ccccc1)NC(=O)[C@H](CO)NC(=O)[C@H](C)NC(=O)[C@H](CC(=O)O)NC(=O)[C@H](C)NC(=O)[C@H](Cc1c[nH]cn1)NC(C)=O)C(C)O)C(C)O)C(=O)N[C@@H](CCCCN)C(=O)N[C@@H](C)C(=O)N[C@@H](CCCCN)C(=O)N[C@H]1CCCCNC(=O)C[C@@H](C(=O)N[C@@H](CC(C)C)C(=O)N[C@@H](CCCCN)C(=O)N[C@@H](CCCCN)C(=O)NCC(=O)NCC(=O)N[C@H](C(N)=O)C(C)O)NC(=O)[C@H](CC(N)=O)NC(=O)[C@H](CC(C)C)NC(=O)[C@H](Cc2ccc(O)cc2)NC1=O (stereo partly shown) [Example 18] (Ac-HADASF[Thr(3ξ)]ENY[Thr(3ξ)]KLRKR[Nle]KAKKYLNDLKKGG[Thr(3ξ)]-NH2; lactam 21-25) | 276 | 5.1 |  |  |  |  |  | + (+ >50%) |
| CCCC[C@H](NC(=O)[C@H](CCCNC(=N)N)NC(=O)[C@H](CCCCN)NC(=O)[C@H](CCCNC(=N)N)NC(=O)[C@H](CC(C)C)NC(=O)[C@H](CCCCN)NC(=O)[C@@H](NC(=O)[C@H](Cc1ccc(O)cc1)NC(=O)[C@H](CC(N)=O)NC(=O)[C@H](CCC(=O)O)NC(=O)[C@@H](NC(=O)[C@H](Cc1ccccc1)NC(=O)[C@H](CO)NC(=O)[C@H](C)NC(=O)[C@H](CC(=O)O)NC(=O)[C@H](CO)NC(=O)[C@H](Cc1c[nH]cn1)NC(C)=O)C(C)O)C(C)O)C(=O)N[C@@H](CCC(=O)O)C(=O)N[C@@H](C)C(=O)N[C@@H](CCCCN)C(=O)N[C@H]1CCCCNC(=O)C[C@@H](C(=O)N[C@@H](CC(C)C)C(=O)N[C@@H](CC(C)C)C(=O)N[C@@H](CCCCN)C(=O)NCC(=O)NCC(=O)N[C@H](C(N)=O)C(C)O)NC(=O)[C@H](CC(N)=O)NC(=O)[C@H](CC(C)C)NC(=O)[C@H](Cc2ccc(O)cc2)NC1=O (stereo partly shown) [Example 19] (Ac-HSDASF[Thr(3ξ)]ENY[Thr(3ξ)]KLRKR[Nle]EAKKYLNDLLKGG[Thr(3ξ)]-NH2; lactam 21-25) | 68.4 | 3.3 |  |  |  |  | + (+ 10-30%) | + (+ >50%) |

Further compounds by falling EC50 (VPAC2 receptor), results first:

| EC50 (VPAC2 receptor) [nM] | Relative elastase stability [2] | Relative elastase stability [4] | Relative elastase stability [5] | Relative elastase stability [6] | Relative elastase stability [7] | Compound | Inhibition of LPS-induced neutrophilia [1] | Inhibition of Penh at 5 minutes post-challenge [3] |
| --- | --- | --- | --- | --- | --- | --- | --- | --- |
| 7.4 | 5.2 |  |  |  |  | CCCC[C@H](NC(=O)[C@H](CCC(N)=O)NC(=O)[C@H](CCCCN)NC(=O)[C@H](CCCNC(=N)N)NC(=O)[C@H](CC(C)C)NC(=O)[C@H](CCCCN)NC(=O)[C@@H](NC(=O)[C@H](Cc1ccc(O)cc1)NC(=O)[C@H](CC(N)=O)NC(=O)[C@H](CCC(=O)O)NC(=O)[C@@H](NC(=O)[C@H](Cc1ccccc1)NC(=O)[C@H](CO)NC(=O)[C@H](C)NC(=O)[C@H](CC(=O)O)NC(=O)[C@H](C)NC(=O)[C@H](Cc1c[nH]cn1)NC(C)=O)C(C)O)C(C)O)C(=O)N[C@@H](C)C(=O)N[C@@H](C)C(=O)N[C@@H](CCCCN)C(=O)N[C@H]1CCCCNC(=O)C[C@@H](C(=O)N[C@@H](CC(C)C)C(=O)N[C@@H](CCCCN)C(=O)N[C@@H](CCCCN)C(=O)NCC(=O)NCC(=O)N[C@H](C(N)=O)C(C)O)NC(=O)[C@H](CC(N)=O)NC(=O)[C@H](CC(C)C)NC(=O)[C@H](Cc2ccc(O)cc2)NC1=O (stereo partly shown) [Example 12] (Ac-HADASF[Thr(3ξ)]ENY[Thr(3ξ)]KLRKQ[Nle]AAKKYLNDLKKGG[Thr(3ξ)]-NH2; lactam 21-25) | + (+ 10-30%) | + (+ >50%) |
| 2.35 | 6 |  |  |  |  | CCCC[C@H](NC(=O)[C@H](CCC(N)=O)NC(=O)[C@H](CCCCN)NC(=O)[C@H](CCCNC(=N)N)NC(=O)[C@H](CC(C)C)NC(=O)[C@H](CCCCN)NC(=O)[C@@H](NC(=O)[C@H](Cc1ccc(O)cc1)NC(=O)[C@H](CC(N)=O)NC(=O)[C@H](CCC(=O)O)NC(=O)[C@@H](NC(=O)[C@H](Cc1ccccc1)NC(=O)[C@@](C)(NC(=O)[C@H](C)NC(=O)[C@H](CC(=O)O)NC(=O)[C@H](CO)NC(=O)[C@H](Cc1c[nH]cn1)NC(C)=O)C(C)C)C(C)O)C(C)O)C(=O)N[C@@H](C)C(=O)N[C@@H](C)C(=O)N[C@@H](CCCCN)C(=O)N[C@H]1CCCCNC(=O)C[C@@H](C(=O)N[C@@H](CC(C)C)C(=O)N[C@@H](CCCCN)C(=O)N[C@@H](CCCCN)C(=O)NCC(=O)NCC(=O)N[C@H](C(N)=O)C(C)O)NC(=O)[C@H](CC(N)=O)NC(=O)[C@H](CC(C)C)NC(=O)[C@H](Cc2ccc(O)cc2)NC1=O (stereo partly shown) [Example 6] (Ac-HSDA[αMeV]F[Thr(3ξ)]ENY[Thr(3ξ)]KLRKQ[Nle]AAKKYLNDLKKGG[Thr(3ξ)]-NH2; lactam 21-25) | ++ (++ >30%) | ++ (++ <50%) |

— patent US20080096807A1, “Cyclic vasoactive intestinal peptide receptor-2 agonists” (priority 2006, published 2008)
